What was measured:
Assay type in all cases: in vivo, rat
[1] = system: Dahl rats (salt-sensitive hypertensive rats); assay: Combined administration of MR antagonist and diuretic: inhibitory action on blood pressure elevation (Example 3); settings: male Dahl rats, 8% salt diet, oral for 6 weeks, trough on day 40; compound (Ia) 0.3 mg/kg, hydrochlorothiazide 1 mg/kg, alone or combined; mean±standard error
Method: (§1) Male Dahl rats (DIS/Eis [Dahl-Iwai S], SPF grade, supplier: Japan SLC, Inc., salt-sensitive hypertensive rats) at 7 weeks of age were divided into groups (6 or 9 rats per group).
(§2) In a normal group and a control group, 0.5% methyl cellulose solution was orally administered for 6 weeks, and in the other groups, a test substance was orally administered for 6 weeks. The test substance was suspended in 0.5% methyl cellulose solution and administered at a volume of 2 mL/kg. Additionally, in the groups other than the normal group, an 8% salt diet (FR-2 containing 8% NaCl, manufactured by Funabashi Farm Co., Ltd.) was given ad libitum from the start of administration of the test substance. The composition of the groups, the administered test substances [in the parentheses], and the number of rats (n) per group are as follows. […]
(§3) Systolic blood pressure was measured by using a noninvasive sphygmomanometer for rats and mice (BP-98A, Softron Co., Ltd.) during the trough period at the 6th week of administration of the test substance (on day 40 from the start of administration of the test substance). In addition, on day 41 from the start of administration of the test substance, urine collection for 24-hour was performed using a metabolic cage (2100-R, Watanabe Isolator Systems Co., Ltd.), and the daily urinary protein excretion per body weight was calculated.

[2] = system: Dahl rats (salt-sensitive hypertensive rats); assay: Combined administration of MR antagonist and calcium antagonist: inhibitory action on blood pressure elevation (Example 2); settings: male Dahl rats, 8% salt diet, oral for 6 weeks, trough on day 41; compound (Ia) 0.1 mg/kg, amlodipine 1 mg/kg, alone or combined; mean±standard error
Method: In a normal group and a control group, 0.5% methyl cellulose solution was orally administered for 6 weeks, and in the other groups, a test substance was orally administered for 6 weeks. The test substance was suspended in 0.5% methyl cellulose solution and administered at a volume of 2 mL/kg. Additionally, in the groups other than the normal group, an 8% salt diet (FR-2 containing 8% NaCl, manufactured by Funabashi Farm Co., Ltd.) was given ad libitum from the start of administration of the test substance. The composition of the groups, the administered test substances [ in parentheses], and the number of rats (n) per group are as follows.
Group 4: amlodipine administration group [amlodipine (1 mg/kg)] n=6

[3] = system: Dahl rats (salt-sensitive hypertensive rats); assay: Combined administration of MR antagonist and angiotensin II receptor antagonist: inhibitory action on blood pressure elevation (Example 1); settings: male Dahl rats, 8% salt diet, oral for 6 weeks, trough on day 42; compound (Ia) 1.0 mg/kg, olmesartan medoxomil 10 mg/kg, alone or combined; mean±standard error
Method: Male Dahl rats (DIS/Eis [Dahl-Iwai S], SPF grade, supplier: Japan SLC, Inc., salt-sensitive hypertensive rats) at 7 weeks of age were divided into groups (6 rats per group).
In a normal group and a control group, 0.5% methyl cellulose solution was orally administered for 6 weeks, and in the other groups, a test substance was orally administered for 6 weeks. The test substance was suspended in 0.5% methyl cellulose solution and administered at a volume of 2 mL/kg. Additionally, in the groups other than the normal group, an 8% salt diet (FR-2 containing 8% NaCl, manufactured by Funabashi Farm Co., Ltd.) was given ad libitum from the start of administration of the test substance. The composition of the groups and the administered test substances [in parentheses] are as follows.
Group 3: compound (Ia) administration group [compound (Ia) (1.0 mg/kg)]
Group 4: olmesartan medoxomil administration group [olmesartan medoxomil (10 mg/kg)]
Group 5: combined administration group [compound (Ia) (1.0 mg/kg)+olmesartan medoxomil (10 mg/kg)]
The results obtained by measuring systolic blood pressure using a noninvasive sphygmomanometer for rats and mice (BP-98A, Softron Co., Ltd.) during the trough period at the 6th week of administration of the test substance (on day 42 from the start of administration of the test substance) are shown in Table 1 (the values in the table represent mean±standard error).

[4] = system: Dahl rats (salt-sensitive hypertensive rats); assay: Combined administration of MR antagonist and diuretic: inhibitory action on proteinuria (Example 3); settings: male Dahl rats, 8% salt diet, oral for 6 weeks, 24-hour urine collection on day 41; compound (Ia) 0.3 mg/kg, hydrochlorothiazide 1 mg/kg, alone or combined; mean±standard error
Method: as §1, §2, §3

Row | SMILES | Systolic blood pressure [1] [mmHg] | Systolic blood pressure [2] [mmHg] | Systolic blood pressure [3] [mmHg] | Daily urinary protein excretion [4] [mg/kg/day]
1 | Cc1c(C(=O)Nc2ccc(S(C)(=O)=O)cc2)cn(CCO)c1-c1ccccc1C(F)(F)F (atropisomer, axis not shown) [compound (Ia), (S)-1-(2-hydroxyethyl)-4-methyl-N-[4-(methylsulfonyl)phenyl]-5-[2-(trifluoromethyl)phenyl]-1H-pyrrole-3-carboxamide] | 196 ± 7 | 207 ± 7 | 170 ± 4 | 190 ± 16
2 | NS(=O)(=O)c1cc2c(cc1Cl)NCNS2(=O)=O [hydrochlorothiazide, 6-chloro-3,4-dihydro-2H-1,2,4-benzothiadiazine-7-sulfonamide 1,1-dioxide, reference compound] | 212 ± 3 | – | – | 320 ± 65

— US10111858B2, “Pharmaceutical for prophylaxis or treatment of hypertension” (Daiichi Sankyo Company, Limited, priority 2013, dated 2018)
